Experimental data taken from the OPERA property sets (Mansouri et al. 2018).

logP	SMILES
1.87	NC1=NCC(CN2CCN(c3ccccc3Cl)CC2)O1 (stereo not given)
0.76	COc1ccccc1N1CCN(CC2CN=C(N)O2)CC1 (stereo not given)
1.21	CCOc1ccccc1N1CCN(CC2CN=C(N)O2)CC1 (stereo not given)
0.85	NC1=NCC(CN2CCN(c3ccccc3)CC2)O1 (stereo not given)
2.19	Cc1cccc(N2CCN(CC3CN=C(N)O3)CC2)c1C (stereo not given)

The next lines start with the compound.

SMILES	logP
Cc1ccc(N2CCN(CC3CN=C(N)O3)CC2)cc1 (stereo not given)	1.23
NC1=NCC(CN2CCN(c3ccc(F)cc3)CC2)O1 (stereo not given)	1
NC1=NCC(CN2CCN(c3ccc(Cl)c(Cl)c3)CC2)O1 (stereo not given)	2.4
NC1=NCC(CN2CCN(c3cccc(Cl)c3)CC2)O1 (stereo not given)	1.83
COc1ccc(N2CCN(CC3CN=C(N)O3)CC2)cc1 (stereo not given)	0.68
COc1cccc(N2CCN(CC3CN=C(N)O3)CC2)c1 (stereo not given)	0.87
NC1=NCC(CN2CCN(c3ccccn3)CC2)O1 (stereo not given)	0.48
NC1=NCC(CN2CCN(c3ncccn3)CC2)O1 (stereo not given)	0.21
NC1=NCC(CN2CCN(c3ccc(Cl)cc3)CC2)O1 (stereo not given)	1.71
NC1=NCC(CN2CCN(c3cccc(C(F)(F)F)c3)CC2)O1 (stereo not given)	2.21
